Assay results: article PMC8533176, “1,5-Benzodiazepin-2(3H)-ones: In Vitro Evaluation as Antiparkinsonian Agents” (Antioxidants, 2021)

Key:
[1] = test system: SH-SY5Y cells; experiment: Intracellular ROS levels (DCFH2-DA); format: cell-based, human; conditions: 400 µM H2O2 4 h; compounds 24 h before
Experimental: Intracellular ROS levels were determined using dichlorofluorescein diacetate (DCFH2-DA) according to Wang et al.. DCFH2-DA is cleaved by intracellular esterases and is oxidized by ROS to form the fluorescent compound DCF, which represents the ROS level. Therefore, 3 × 10^3 SH-SY5Y cells were seeded in 96-well culture black clear bottom plates and after 24 h were treated with the test compound for an additional 24 h. Then, they were exposed to H2O2 for 4 h. After the incubation period, cells were washed twice with Hanks buffer and loaded with 20 µM DCFH2-DA (in FBS-free culture medium) for 40 min in dark at 37 °C in a CO2 incubator. At the end of the dye incubation period, they were washed twice with Hanks buffer to remove the extracellular DCFH2-DA. Fluorescence was measured with a Varioskan microplate reader at λex = 485 nm and λem = 535 nm wavelengths. Results are expressed as a percentage of the fluorescent increase compared with that of the control. All the experiments were performed at least three times in quadruplicate for each compound concentration.

[2] = test system: SH-SY5Y cells; experiment: LDH release under H2O2; format: cell-based, human; conditions: H2O2 250 µM 24 h; compounds 24 h before; Figure 9
[3] = Kinetic solubility by UV spectrometry; format: physicochemical; conditions: PBS 50 mM, aqueous buffer, kinetic from dmso stock
How it was run: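 Compound from 20 mM DMSO stock was added to 10 mM PBS, shaken 2 h and filtered. The filtrate's UV absorbance (270–600 nm) was quantified against a 10–200 µM calibration curve in 50 mM PBS with 2% DMSO. Run in triplicate.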

[4] = test system: SH-SY5Y cells; experiment: Neuroprotection against H2O2-induced oxidative stress, MTT; conditions: H2O2 250 µM 24 h; compounds 5-50 µM 24 h before; Figure 8
[5] = test system: Caspase-3 activity in SH-SY5Y cells; experiment: Caspase-3 activity; format: cell-based, human; conditions: H2O2 500 µM 4 h; compound 24 h before
Experimental: Caspase-3 activity was measured using the Abcam fluorimetric kit (ab39383) according to the manufacturer’s instructions. Cells are washed with ice-cold PBS and lysed with lysis buffer. After compound and stressor treatments, SH-SY5Y cells were scraped off from p6 plates and collected in a 1.5 mL Eppendorf vial. The cell suspension was then centrifuged at 9000× g for 10 min at 4 °C. The supernatant was collected and stored at −80 °C for 24 h. Caspase 3 activity was measured as the ability of the cell extract to cleave the […] fluorochrome. The sample’s protein concentration was determined by the Bradford method. The reaction assay was performed by the addition of 50 μL of the cell lysate into the wells of a black 96-well culture plate followed by the addition of 50 μL of 2× reaction buffer containing DTT (10 mM) and caspase-3 substrate DEVD-AFC (final concentration 50 μM). Reagents were mixed by shaking the plate for 2 min at 300 rpm and then incubated at 37 °C for 2 h. Caspase-3 activity was measured as fluorescence intensity in a Varioskan microplate reader at λex = 400 nm and λem = 505 nm wavelengths. Relative fluorescence units (RFU)/mg of protein were calculated, and the fold increase in Caspase-3 activity was compared with that of the control.

O=C1CC(c2ccccc2)=Nc2ccccc2N1 [Compound 18, 4-Phenyl-1H-1,5-benzodiazepin-2(3H)-one]
Intracellular ROS level reduction [1]: ROS level reduction at all doses | LDH leakage [2]: significant reduction at all the concentrations tested | solubility [3]: < 100 µM | Neuroprotection effect, cell viability (MTT) [4]: significantly improved | Caspase-3 activity reduction [5]: reduced the levels of activated caspase 3
